Measurements published in US20080255134A1 (Artesian Therapeutics, Inc., priority 2004, published 2008).
Entries after “also recorded” stand apart in the source; their conditions may differ. Read-outs that look alike come from different tables or passages of the source.

Legend:
PDE3 = biological target: T1, PDE3 (Homo sapiens, UniProt Q14432); experiment: In vitro assay for cAMP PDE-3 inhibitory activity; format: biochemical
T1 construct: from tissue; host or cells: human platelets

[1] = biological target: beta-receptors from rat cortical membranes; experiment: Non-specific β-receptor radioligand binding, [3H]DHA; settings: read-out: Non-selective β-adrenergic IC50
Experimental: (§1) Non-selective β-adrenergic and β1-adrenergic radioligand binding assays were performed using rat cortical membranes; β2-adrenergic receptor assays were performed using membranes isolated from CHO cells expressing human, recombinant b2-adrenergic receptor; non-selective α1-adrenergic receptor assays were performed using rat forebrain membranes; and PDE3 binding assays were performed on human platelets. Values in percent illustrate percent inhibition at 1000 nM concentration.

[2] = biological target: T2, human recombinant beta-2 receptors (Homo sapiens, UniProt P07550); experiment: β2-receptor radioligand binding, [125I] iodocyanopindolol, CHO-WT21 cells
T2 construct: expressed in transfected cells; host or cells: CHO-WT21 cells
Experimental: as §1

[3] = system: isolated ventricular myocytes; experiment: Sarcomere shortening (contractility) in isolated ventricular myocytes; format: cell-based, rabbit
Experimental: […] Isoproterenol, a potent β-Adrenergic agonist, can produce large increases in cardiac contraction, calcium transient amplitude, and the rates of relaxation (acceleration of relaxation or lusitropic effect). The effects of isoproterenol are then antagonized with different concentrations of a compound of the present invention.
Cardiac myocytes were digested from healthy white New Zealand male rabbits (3-5 lbs), with enzymatic digestion. Briefly, each animal is anesthetized with ketamine (50 mg/kg) and xylazine (6 mg/kg)-IM injection in hind limb. Once the animal was sedated (˜10-15 min), 0.1-0.3 ml of pentobarbital was injected into the ear vein. The heart was exposed by a cut just below the rib-cage and bilateral thoracotomy and removed rapidly ensuring that aorta remains intact. The heart was immediately placed in oxygenated NT with Ca^2+ placed on ice for rinsing the blood out, cleared from vessels and pericardium, cannulated and maintained at 37° C. The heart was retrogradedly perfused and tissue digested with collagenase and protease. Digested myocytes were subsequently stored in 0.1 mM Ca^2+ normal tyrodes for further analyses. Sarcomere length changes upon treatment with test compounds were recorded at 37° C. in the presence of 2 mM calcium and analyzed with an IonOptix system. Sarcomere length data was acquired for each myocyte over an average of 10 beats duration, at pacing rates of 1, 2, and 3 Hz. Basal percent sarcomere shortening and length-frequency relation of each myocyte was evaluated, and serve as a measure of cellular viability.
In vitro studies were performed using rabbit ventricular tissue, to examine the effects of Compounds 25 and 8c on myocyte contractility. New Zealand male rabbits (1.5-2.5 kg) were anesthetized with ketamine (50 mg/kg) and xylazine (6 mg/kg)-IM. The heart was exposed and removed rapidly to ensure that the aorta remained intact. The ventricular tissue was digested enzymatically. Sarcomere shortening was measured in the presence of 2 mM calcium at 37° C. using an IonOptix system; reported values were at 2 Hz pacing frequency.

[4] = system: White New Zealand male rabbits; experiment: In vivo β-adrenergic blockade, isoproterenol challenge (Protocol 1); design: species or system rabbit
Experimental: (§2) Studies were performed on White New Zealand male rabbits (2-3 kg weight). Animals were initially anesthetized with ketamine (50 mg/kg; IM) and xylazine (6 mg/kg, IM). Subsequently, animals were intubated (via tracheotomy; 3 mm tube) and ventilated with 2% isoflurane (mixed in 95% O2+5% CO2). Each rabbit was instrumented for LV pressure (3F Millar catheter) through right carotid artery, arterial pressure (3F catheter, Cook Instruments) through left femoral artery, which was connected to a fluid-filled pressure transducer (BD Instruments), and ECG. Both pressure transducers were zeroed against atmospheric pressure, and calibrated before each study using an analog manometer. Upon completion of instrumentation, isoflurane was reduced to 1.25%, and the animal was covered for maintenance of body core temperature. Arterial and LV blood pressures (LVP) and the ECG signals were simultaneously digitally recorded on a PC. The recording system (Gould Instruments) and the corresponding software (Ponema, Gould Instruments) facilitated detailed calculation of various parameters directly from all signals and record on a separate file with a 1 sec resolution. Upon completion of the study protocol, rabbits were euthenized by isoflurane overdose (5% for at least 1 minute) and cardiac arrest through IV infusion of 5 ml 3 molar potassium chloride.
(§3) Once the physiological variables were stable, effects of each drug on hemodynamics and ECG were determined based on two different protocols: 1) infusion of a compound of the present invention to determine the effects of the compound itself mainly on contractility, and other hemodynamic indices; and 2) infusion of a compound of the present invention while the system was challenged with 0.5 ug/kg isoproterenol to determine the beta-adrenergic antagonism properties of each tested compound.
(§4) White New Zealand male rabbits (2-3 kg) were anesthetized and ventilated (95% O2+5% CO2) with 1.25% isoflurane. Each animal was instrumented for LV pressure (Millar, through left carotid artery), arterial pressure (left femoral artery), infusion (jugular vein), and electrocardiogram. The animals were administered intravenously based on one of these protocols:
Protocol 1: β-adrenergic blockade (isoproterenol challenge).

[5] = system: White New Zealand male rabbits; experiment: In vivo hemodynamic effects of compounds administered alone (Protocol 2); design: species or system rabbit
Experimental: as §2, §3, §4
Protocol 2: PDE3 inhibition (effects of compounds when administered alone).

[6] = system: human fetal cardiac fibroblasts; experiment: Cyclic-AMP production by fluorescence (intrinsic sympathomimetic activity); format: cell-based; settings: IBMX (750 μM) present; compared to isoproterenol or forskolin; any concentration tested
Experimental: The effect of Compound 8c on cyclic-AMP production was determined in human fetal cardiac fibroblasts by fluorescence, presented in FIG. 18 as [F−Fo)/Fo], mean±SEM, N=4. IBMX (750 μM) was present in all assays.

[7] = Compound 25 0.3 mg/kg, carvedilol 0.1 mg/kg, Protocol 1, FIG. 13

T1 sequence (Q14432 whole entry): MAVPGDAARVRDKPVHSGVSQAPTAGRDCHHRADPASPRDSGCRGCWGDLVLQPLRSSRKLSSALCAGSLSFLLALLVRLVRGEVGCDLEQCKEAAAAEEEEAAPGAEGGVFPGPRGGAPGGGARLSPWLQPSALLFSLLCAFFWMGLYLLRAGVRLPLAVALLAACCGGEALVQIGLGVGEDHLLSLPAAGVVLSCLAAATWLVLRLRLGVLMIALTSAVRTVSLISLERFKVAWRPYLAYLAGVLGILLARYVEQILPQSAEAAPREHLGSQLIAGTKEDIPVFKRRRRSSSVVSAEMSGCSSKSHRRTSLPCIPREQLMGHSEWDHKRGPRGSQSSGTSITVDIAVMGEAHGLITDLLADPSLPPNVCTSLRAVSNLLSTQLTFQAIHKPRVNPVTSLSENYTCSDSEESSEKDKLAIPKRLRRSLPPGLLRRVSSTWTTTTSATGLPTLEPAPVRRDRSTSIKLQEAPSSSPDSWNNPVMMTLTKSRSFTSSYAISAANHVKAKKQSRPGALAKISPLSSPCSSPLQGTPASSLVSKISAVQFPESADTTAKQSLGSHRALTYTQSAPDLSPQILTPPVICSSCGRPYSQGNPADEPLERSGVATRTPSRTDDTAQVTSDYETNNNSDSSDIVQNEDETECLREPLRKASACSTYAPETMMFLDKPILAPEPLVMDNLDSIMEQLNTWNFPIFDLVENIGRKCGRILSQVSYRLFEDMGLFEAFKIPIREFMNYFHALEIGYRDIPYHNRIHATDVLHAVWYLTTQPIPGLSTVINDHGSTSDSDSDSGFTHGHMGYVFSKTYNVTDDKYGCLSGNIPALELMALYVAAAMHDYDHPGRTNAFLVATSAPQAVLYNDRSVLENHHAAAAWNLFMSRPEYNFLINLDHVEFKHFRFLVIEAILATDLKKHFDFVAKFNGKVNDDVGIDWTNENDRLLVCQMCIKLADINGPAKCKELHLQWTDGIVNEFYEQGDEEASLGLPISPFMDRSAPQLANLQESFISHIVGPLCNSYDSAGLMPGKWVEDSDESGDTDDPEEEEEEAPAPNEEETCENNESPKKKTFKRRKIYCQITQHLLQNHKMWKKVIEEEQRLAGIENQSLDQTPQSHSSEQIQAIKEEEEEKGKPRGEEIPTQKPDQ
T2 sequence (P07550 whole entry): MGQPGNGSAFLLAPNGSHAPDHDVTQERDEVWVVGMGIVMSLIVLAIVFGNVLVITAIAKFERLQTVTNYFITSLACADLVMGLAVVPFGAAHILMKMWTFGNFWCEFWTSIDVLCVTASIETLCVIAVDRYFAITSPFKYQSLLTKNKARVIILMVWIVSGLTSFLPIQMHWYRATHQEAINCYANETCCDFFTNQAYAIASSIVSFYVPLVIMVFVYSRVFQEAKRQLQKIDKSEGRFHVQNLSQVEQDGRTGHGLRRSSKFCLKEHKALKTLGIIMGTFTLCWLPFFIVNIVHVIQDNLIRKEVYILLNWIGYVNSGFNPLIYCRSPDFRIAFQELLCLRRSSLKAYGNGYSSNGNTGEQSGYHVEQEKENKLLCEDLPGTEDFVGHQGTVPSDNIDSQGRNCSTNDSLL

IC50 (PDE3; human platelet cyclic AMP phosphodiesterase, bound stated, read-out: PDE3 inhibition IC50): < 1000 nM
IC50 (PDE3; human platelet cyclic AMP phosphodiesterase, bound stated, read-out: PDE IC50 inhibition values): < 100 nM
IC50 (PDE3; human platelets, read-out: PDE3 IC50): 19 nM
IC50 [1]: 3 nM
inhibition at 0.1 µM ([2]; at 100 nM): > 25%
IC50 ([2]; membranes from CHO cells expressing human recombinant β2-adrenergic receptor): 1 nM
SMILES: O=C1CCC(c2ccc(OCCNCC(O)COc3cccc4[nH]c5ccccc5c34)c(Cl)c2)=NN1 (racemic) [Compound 25, 6-(4-{2-[3-(9H-Carbazol-4-yloxy)-2-hydroxy-propylamino]-ethoxy}-3-chloro-phenyl)-4,5-dihydro-2H-pyridazin-3-one]
blocking of isoproterenol effect on myocyte contractility ([3]; 0.1 μM isoproterenol): blocking the effects of 0.1 μM isoproterenol
contractility (sarcomere shortening) in isolated ventricular myocytes ([3]; 2 mM calcium, 37° C., 2 Hz pacing frequency): increased contractility
contractility (LV+dP/dtmax) at ED50 [4, 7]: increased contractility
mean arterial pressure (MAP) at ED50 [4, 7]: more potent decrease in mean arterial pressure (MAP) than carvedilol
ED50 ([4]; Oryctolagus cuniculus, isoproterenol challenge (0.5 μg/kg), intravenous, read-out: ED50, dose that diminished isoproterenol-dependent increase in HR by 50%): 0.3 mg/kg
relaxation properties (Tau) at ED50 ([4]; compared to control, Protocol 1, FIG. 13): did not change the relaxation properties (Tau)
β-adrenergic antagonism on heart rate (HR) ([4]; during isoproterenol challenge (0.5 μg/kg), FIG. 11): dose-dependent β-adrenergic antagonism
heart rate when administered alone ([5]; Protocol 2, with and without atropine and bilateral vagotomy (FIG. 16)): minimal effect on heart rate; also recorded: did not increase heart rate
left ventricular contractility when administered alone ([5]; protocol 2, relative to control, FIGS. 2, 12): increased or maintained contractility in a dose-dependent manner
intrinsic sympathomimetic activity (cyclic-AMP production) [6]: neither Compound 8c nor Compound 25 possessed intrinsic sympathomimetic activity
